Converted amounts (≈) assume the structure as drawn.
Key:
Assay type in all cases: cell-based
S. aureus MP-12 = test: microbe, parasite or virus in culture; settings: Staphylococcus aureus, MP12, read-out: MIC S. aureus MP-12
E. coli MP-4 = test: MIC determination by CLSI broth dilution, E. coli MP-4; settings: Escherichia coli, MP4, CLSI broth dilution; strain MP-4
K. pneumoniae MP-546 = test: MIC determination by CLSI broth dilution, K. pneumoniae MP-546; settings: Klebsiella pneumoniae, MP546, CLSI broth dilution; strain MP-546
P. aeruginosa MP-3 = test: MIC determination by CLSI broth dilution, P. aeruginosa MP-3; settings: Pseudomonas aeruginosa, MP3, strain MP-3
A. baumannii MP-15 = test: MIC determination by CLSI broth dilution, A. baumannii MP-15; settings: Acinetobacter baumannii, MP15, strain MP-15, read-out: MIC A. baumanii MP-15

| Structure (SMILES) | MIC (S. aureus MP-12) | MIC (E. coli MP-4) | MIC (K. pneumoniae MP-546) | MIC (P. aeruginosa MP-3) | MIC (A. baumannii MP-15) |
| --- | --- | --- | --- | --- | --- |
| CO[C@]1(C)C[C@@H](C)CN(C)[C@@H](CCCN(C)C)COC(=O)C(C)(C)C(=O)[C@H](C)[C@H]1O[C@@H]1O[C@H](C)C[C@H](N(C)C)[C@H]1O [Compound 6, (3S,6R,8R,9R,10R)-9-(((2S,3R,4S,6R)-4-(dimethylamino)-3-hydroxy-6-methyltetrahydro-2H-pyran-2-yl)oxy)-3-(3-(dimethylamino)propyl)-8-methoxy-4,6,8,10,12,12-hexamethyl-1-oxa-4-azacyclotridecane-11,13-dione] | > 32 mg/L | < 4 mg/L | < 4 mg/L | > 32 mg/L | > 32 mg/L |
| CNC[C@H]1COC(=O)C(C)(C)C(=O)[C@H](C)[C@@H](O[C@@H]2O[C@H](C)C[C@H](N(C)C)[C@H]2O)[C@](C)(OC)C[C@@H](C)CN1C [Compound 9, (3S,6R,8R,9R,10R)-9-(((2S,3R,4S,6R)-4-(Dimethylamino)-3-hydroxy-6-methyltetrahydro-2H-pyran-2-yl)oxy)-8-methoxy-4,6,8,10,12,12-hexamethyl-3-((methylamino)methyl)-1-oxa-4-azacyclotridecane-11,13-dione] | > 32 mg/L | 4 to 32 mg/L (≈ 7.36 to 58.9 µM) | 4 to 32 mg/L (≈ 7.36 to 58.9 µM) | > 32 mg/L | > 32 mg/L |
| CO[C@]1(C)C[C@@H](C)CN(C)[C@@H](CCCN(C)C(C)C)COC(=O)C(C)(C)C(=O)[C@H](C)[C@H]1O[C@@H]1O[C@H](C)C[C@H](N(C)C)[C@H]1O [Compound 11, (3S,6R,8R,9R,10R)-9-(((2S,3R,4S,6R)-4-(dimethylamino)-3-hydroxy-6-methyltetrahydro-2H-pyran-2-yl)oxy)-3-(3-(isopropyl(methyl)amino)propyl)-8-methoxy-4,6,8,10,12,12-hexamethyl-1-oxa-4-azacyclotridecane-11,13-dione] | 4 to 32 mg/L (≈ 6.52 to 52.1 µM) | < 4 mg/L | < 4 mg/L | > 32 mg/L | > 32 mg/L |
| CO[C@]1(C)C[C@@H](C)CN[C@H](CCSC)COC(=O)[C@H](C)C(=O)[C@H](C)[C@H]1O[C@@H]1OC(C)CC(N(C)C)C1O (stereo partly shown) [Compound 202] | > 32 mg/L | > 32 mg/L |  | > 32 mg/L | > 32 mg/L |
| CO[C@]1(C)C[C@@H](C)CN[C@H](CC[S+](C)[O-])COC(=O)[C@H](C)C(=O)[C@H](C)[C@H]1O[C@@H]1OC(C)CC(N(C)C)C1O (stereo partly shown) [Compound 203] | > 32 mg/L | > 32 mg/L |  | > 32 mg/L | > 32 mg/L |
| CO[C@]1(C)C[C@@H](C)CN[C@H](CO)COC(=O)[C@H](C)C(=O)[C@H](C)[C@H]1O[C@@H]1OC(C)CC(N(C)C)C1O (stereo partly shown) [Compound 204] | > 32 mg/L | > 32 mg/L |  | > 32 mg/L | > 32 mg/L |
| CO[C@]1(C)C[C@@H](C)CN[C@@H](Cc2c[nH]cn2)COC(=O)[C@H](C)C(=O)[C@H](C)[C@H]1O[C@@H]1OC(C)CC(N(C)C)C1O (stereo partly shown) [Compound 205] | > 32 mg/L | > 32 mg/L |  | > 32 mg/L | > 32 mg/L |
| CO[C@]1(C)C[C@@H](C)CN[C@@H](C)COC(=O)[C@H](C)C(=O)[C@H](C)[C@H]1O[C@@H]1OC(C)CC(N(C)C)C1O (stereo partly shown) [Compound 206] | > 32 mg/L | 4 to 32 mg/L (≈ 8.22 to 65.8 µM) |  | > 32 mg/L | > 32 mg/L |
| CO[C@]1(C)C[C@@H](C)CN[C@H](C)COC(=O)[C@H](C)C(=O)[C@H](C)[C@H]1O[C@@H]1OC(C)CC(N(C)C)C1O (stereo partly shown) [Compound 207] | > 32 mg/L | > 32 mg/L |  | > 32 mg/L | > 32 mg/L |
| CO[C@]1(C)C[C@@H](C)CN[C@@H](Cc2ccccc2)COC(=O)[C@H](C)C(=O)[C@H](C)[C@H]1O[C@@H]1OC(C)CC(N(C)C)C1O (stereo partly shown) [Compound 208] | 4 to 32 mg/L (≈ 7.11 to 56.9 µM) | > 32 mg/L |  | > 32 mg/L | > 32 mg/L |

— patent US12552825B2 (Zikani Therapeutics, Inc., priority 2019, dated 2026)
